{"source": "patent US11112409B2", "about": "“Systems and compositions for diagnosing pathogenic fungal infection and methods of using the same” (priority 2016, dated 2021)", "key": {"Kex2": {"test_system": "Kex2", "test": "MSP-MS profiling of conditioned media with inhibitor pretreatment, cleavage sites assigned to Kex2", "assay_type": "biochemical, C. albicans", "conditions": "1 mM EDTA or 10 μM pepstatin A", "from_the_text": "FIG. 8 depicts global substrate specificity profiling of recombinant Kex2 from Saccharomyces cerevisiae. (top) Time-dependent generation of cleavages following dibasic (P2-P1) K/R-R residues in the MSP-MS library for recombinant Kex2 and C. albicans wild-type (SN425) conditioned media from 24-hour biofilm and planktonic cultures. Cleavage sites assigned to Kex2 in the conditioned media profiles were sensitive to EDTA and insensitive to pepstatin treatments. […] This is illustrated in the differential cleavage pattern of an example MSP-MS peptide."}, "[1]": {"test_system": "aspartyl protease activity in conditioned media", "test": "Pepstatin pretreatment of conditioned media, fluorogenic substrate cleavage", "assay_type": "biochemical, C. albicans", "conditions": "10 μM pepstatin, VFILWRTE and TFSYnRWP substrates", "method": "FIGS. 4A-4B depict probe activity in biofilm and planktonic conditioned media following pepstatin A pretreatment and in conditioned media from sap5Δ/Δ, sap6Δ/Δ, and sap5/6ΔΔ/ΔΔ deletion strains. […] Matched comparison to wild-type (SN425) conditioned media is provided (FIG. 12).\nTo further confirm probe selectivity for the target proteases, conditioned media preparations were also assayed from sap5Δ/Δ and sap6Δ/Δ single deletion mutant strains and a sap5/6ΔΔ/ΔΔ double deletion mutant strain (FIG. 4B). […] Indeed, shotgun proteomics analysis on matched biofilm conditioned media preparations from the wild-type reference and mutant strains confirmed an increase in Sap6 levels associated with the sap5Δ/Δ mutant strain. In contrast, there was no observable increase in Sap5 levels associated with the sap6Δ/Δ mutant strain in agreement with the activity results (Table 5). We note that substrate cleavage in the sap5/6ΔΔ/ΔΔ double deletion mutant strain indicates proteolytic activity from additional proteases that are in lower abundance, possibly reflecting compensation for loss of SAP5/SAP6."}, "[2]": {"test_system": "pepstatin-sensitive protease activity in rat serum", "test": "Sap6 substrate cleavage in blood/serum from rat biofilm catheter and IV infection models", "assay_type": "biochemical", "method": "FIG. 16 depicts the detection of pepstatin-sensitive activity in serum from C. albicans biofilm rat catheter and disseminated infection models. Detection of pepstatin-sensitive protease activity with the TFSYnRWP (SEQ ID NO: 23) fluorogenic probe in rat serum samples. Blood was collected both directly from C. albicans biofilm-infected catheters and peripherally 48 hours post biofilm infection (N=3 rats). Blood was also sampled peripherally 24 hours post IV infection with C. albicans (10^6 CFUs) (N=3 rats). Uninfected rats were used as a healthy control (N=3 rats). Activity assays were carried out using serum samples that had been diluted 25-fold into pH 4.0 buffer.\nFIG. 22 depicts detection of infection-specific aspartyl protease activity in serum from a rat catheter biofilm model using the Sap6-cleavable probe. Serum was collected both directly from the biofilm-infected catheter, peripherally from the rat jugular vein, and from the jugular vein of an uninfected control rat (n=2).\nTo provide validation of the protease activity-based diagnostic approach in a rat biofilm catheter model, blood was directly sampled from (i) the catheters of rats with introduced C. albicans biofilms, (ii) peripherally from the same rats, and, (iii) following IV infection, and (iv) as a control, from rats not exposed to C. albicans."}, "recombinant Sap6": {"test_system": "recombinant Sap6", "test": "Internally quenched fluorogenic substrate activity assay with recombinant Sap6", "assay_type": "biochemical, C. albicans", "conditions": "2 μg/mL recombinant Sap, 10 μM substrate, pH 5.5", "method": "Specific activity was determined with 2 μg/mL recombinant Saps and the substrates […] (10 μM, SEQ ID NO: 22), IYRnHVQL (25 μM; SEQ ID NO: 24), WPSnNKVG (25 μM; SEQ ID NO: 25), and TFSYnRWP (10 μM; SEQ ID NO: 23). RFU was converted to moles of product formation using a correction factor experimentally determined for each substrate.\nFor each protease, two 8-mer peptide sequences containing P4-P4′ residues from Sap5- or Sap6-favored cleavages were selected for incorporation into internally quenched fluorogenic peptides. The fluorogenic probes were synthesized bearing either a 5-carboxyfluorescein or 7-methoxycoumarin fluorophore with a corresponding quencher positioned at opposing termini such that peptide cleavage yields a fluorescence signal.\nActivity assays with internally quenched fluorogenic substrates were performed up to one hour in black 96-well round bottom plates (Costar) using a BioTek Synergy H4 Hybrid Multi-Mode Microplate Reader set to 37° C. The following excitation/emission wavelengths were used: 328 nm/393 nm (gain 96) for MCA and Ex/Em of 485 nm/538 nm (gain 94) for 5-FAM. RFU was corrected to moles of product formation as appropriate using a conversion factor calculated from the total proteolytic hydrolysis of each substrate. Activity assays with conditioned media were performed with 10 μM substrate and either 20 μg/mL protein sample for […] […]"}, "[3]": {"test_system": "conditioned media from C. albicans biofilm and planktonic cultures", "test": "Fluorogenic substrate cleavage in biofilm and planktonic conditioned media", "assay_type": "biochemical", "conditions": "for preferential cleavage by biofilm culture medium (B/P): biofilm versus planktonic conditioned media", "method": "Activity assays with internally quenched fluorogenic substrates were performed up to one hour in black 96-well round bottom plates (Costar) using a BioTek Synergy H4 Hybrid Multi-Mode Microplate Reader set to 37° C. The following excitation/emission wavelengths were used: 328 nm/393 nm (gain 96) for MCA and Ex/Em of 485 nm/538 nm (gain 94) for 5-FAM. RFU was corrected to moles of product formation as appropriate using a conversion factor calculated from the total proteolytic hydrolysis of each substrate. Activity assays with conditioned media were performed with 10 μM substrate and either 20 μg/mL protein sample for […] (SEQ ID NO: 22) or 10 μg/mL protein sample for TFSYnRWP (SEQ ID NO: 23). For assays with recombinant Saps, 2 μg/mL Sap5 and Sap6 were used with the following substrate concentrations: […] (10 μM; SEQ ID NO: 22), IYRnHVQL (25 μM; SEQ ID NO: 24), WPSnNKVG (25 μM; SEQ ID NO: 25), and TFSYnRWP (10 μM; SEQ ID NO: 23)."}}, "note": "Entries after “also recorded” stand apart in the source; their conditions may differ. Square brackets hold non-standard residues; d marks the D form. Ends that are not written are not given here. Peptide text beside a SMILES is read from it. * marks the point of attachment. Lys(DNP) = Lys carrying DNP quencher; Sta = CC(C)C[C@H](N)[C@@H](O)CC(=O)O; Isovaleryl = CC(C)CC(=O)*; Nle = CCCC[C@H](N)C(=O)O"}
{"compound": "O=C(O)CN(CCN(CC(=O)O)CC(=O)O)CC(=O)O", "note": "[EDTA]", "values": [{"measurement": "sensitivity of Kex2-assigned cleavage sites to inhibitor treatment", "setting": "Kex2", "result": "sensitive"}]}
{"compound": "CC(C)CC(=O)N[C@H](C(=O)N[C@H](C(=O)N[C@@H](CC(C)C)[C@@H](O)CC(=O)N[C@@H](C)C(=O)N[C@@H](CC(C)C)[C@@H](O)CC(=O)O)C(C)C)C(C)C", "note": "[Pepstatin A] (Isovaleryl-VV[Sta]A[Sta]-OH)", "values": [{"measurement": "effect of pepstatin pretreatment on substrate cleavage", "setting": "[1]", "result": "significant reduction in substrate cleavage"}, {"measurement": "effect of pepstatin pretreatment on TFSYnRWP cleavage in blood of infected rats", "setting": "[2]; pepstatin pretreatment", "result": "significantly reduced"}, {"measurement": "sensitivity of Kex2-assigned cleavage sites to inhibitor treatment", "setting": "Kex2", "result": "insensitive"}]}
{"compound": "DArg-DArg-Lys(MCA)-Thr-Phe-Ser-Tyr-Nle-Arg-Trp-Pro-Lys(DNP) ({dR-dR-Lys(MCA)}-TFSY[Nle]RWP-{Lys(DNP)}) [TFSYnRWP, internally quenched fluorogenic substrate for Sap6]", "values": [{"measurement": "specific activity and selectivity for Sap6", "setting": "recombinant Sap6", "result": "highest specific activity and selectivity; also recorded: high specific activity and selectivity"}, {"measurement": "preferential cleavage by biofilm culture medium (B/P)", "setting": "[3]", "result": 4.4, "unit": "fold"}, {"measurement": "substrate activity in sap5Δ/Δ deletion strain conditioned media", "setting": "[3]; sap5Δ/Δ single deletion strain", "result": "increased"}, {"measurement": "substrate cleavage, biofilm versus planktonic conditioned media", "setting": "[3]; wild-type, 24-hour conditioned media, 10 μM substrate", "result": "higher biofilm activity"}, {"measurement": "substrate cleavage in blood harvested from infected rats", "setting": "[2]; C. albicans biofilm catheter or IV infected rats", "result": "readily detected"}, {"measurement": "cleavage activity in uninfected rats", "setting": "[2]; rats not exposed to C. albicans", "result": "absent"}]}
{"compound": "VFILWRTE (also: CPQ2 quencher, place not given here, 5-FAM, place not given here, DArg-DArg-NH2, place not given here) [internally quenched fluorogenic substrate for Sap5]", "values": [{"measurement": "preferential cleavage by biofilm culture medium (B/P)", "setting": "[3]", "result": 10, "unit": "fold"}]}
